Assay results reported in PMC6173509, “C-3- and C-4-Substituted Bicyclic Coumarin Sulfamates as Potent Steroid Sulfatase Inhibitors” (ACS Omega, 2018).

Tests used:
steroid sulfatase (STS) [1] = target: T1, steroid sulfatase (STS) (Homo sapiens, UniProt P08842); assay: STS inhibition in placental microsomes; assay type: biochemical; parameters: a placental microsomal preparation from a sulfatase-positive human placenta from a normal term pregnancy; from tissue; host or cells: human placenta (microsomal preparation); settings: 20 μM E1S; for inhibition at 0.1 µM: 0.1 μM inhibitor; for inhibition at 1 µM: 1 μM inhibitor; for inhibition at 0.01 µM: 0.01 μM inhibitor; for inhibition at 10 µM: 10 μM inhibitor
T1 sequence (P08842 22-583): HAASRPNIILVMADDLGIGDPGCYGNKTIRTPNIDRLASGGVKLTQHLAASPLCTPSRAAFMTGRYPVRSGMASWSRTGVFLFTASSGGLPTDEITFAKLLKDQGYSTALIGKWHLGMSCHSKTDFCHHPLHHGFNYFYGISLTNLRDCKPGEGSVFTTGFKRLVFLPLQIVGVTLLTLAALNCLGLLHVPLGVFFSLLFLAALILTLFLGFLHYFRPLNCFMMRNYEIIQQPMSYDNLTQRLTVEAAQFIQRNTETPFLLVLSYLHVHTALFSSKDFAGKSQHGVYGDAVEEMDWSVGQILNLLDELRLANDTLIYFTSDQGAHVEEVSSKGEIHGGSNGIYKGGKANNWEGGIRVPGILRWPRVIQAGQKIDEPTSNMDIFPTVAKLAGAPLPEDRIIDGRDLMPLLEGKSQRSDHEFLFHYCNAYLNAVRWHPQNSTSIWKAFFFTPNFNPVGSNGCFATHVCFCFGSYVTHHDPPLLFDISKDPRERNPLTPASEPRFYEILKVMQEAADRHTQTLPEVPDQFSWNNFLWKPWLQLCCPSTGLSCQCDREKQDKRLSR

steroid sulfatase (STS) [2] = target: T1, steroid sulfatase (STS); assay: STS inhibition in intact MCF-7 breast cancer cells; assay type: cell-based; parameters: endogenous in cells; host or cells: MCF-7 breast cancer cells; settings: for inhibition at 0.01 µM: MCF7, read-out: % Inhibition of STS Activity in Intact MCF-7 Breast Cancer Cells at 0.01 μM; for inhibition at 0.1 µM: MCF7, read-out: % Inhibition of STS Activity in Intact MCF-7 Breast Cancer Cells at 0.1 μM; for inhibition at 1 µM: MCF7, read-out: % Inhibition of STS Activity in Intact MCF-7 Breast Cancer Cells at 1 μM; for inhibition at 10 µM: MCF7, read-out: % Inhibition of STS Activity in Intact MCF-7 Breast Cancer Cells at 10 μM; for IC50: 3 nM E1S

Row | SMILES | inhibition at 0.1 µM (steroid sulfatase (STS) [1]) [%] | inhibition at 1 µM (steroid sulfatase (STS) [1]) [%] | IC50 (steroid sulfatase (STS) [1]) [nM] | inhibition at 0.01 µM (steroid sulfatase (STS) [2]) [%] | inhibition at 0.1 µM (steroid sulfatase (STS) [2]) [%] | inhibition at 1 µM (steroid sulfatase (STS) [2]) [%] | inhibition at 10 µM (steroid sulfatase (STS) [2]) [%] | inhibition at 0.01 µM (steroid sulfatase (STS) [1]) [%] | inhibition at 10 µM (steroid sulfatase (STS) [1]) [%] | IC50 (steroid sulfatase (STS) [2]) [nM]
1 | Cc1c(CCC2CCCCC2)c(=O)oc2cc(OS(N)(=O)=O)ccc12 [compound 45, 3-(2-Cyclohexylethyl)-4-methylcoumarin-7-O-sulfamate] | 37 | 99 |  |  |  |  |  |  |  | 
2 | CCCCCCCCCCCc1c(C)c2ccc(OS(N)(=O)=O)cc2oc1=O [compound 34, 4-Methyl-3-undecylcoumarin-7-O-sulfamate] |  |  | 2000 |  |  |  |  |  |  | 
3 | CCCCCCCCCc1cc(=O)oc2cc(OS(N)(=O)=O)ccc12 [compound 14, 4-Nonylcoumarin-7-O-sulfamate] | 79 | 97 | 60 | 90 | 96 | 98 | 100 | 18 | 99 | 
4 | CC(C)c1cc(=O)oc2cc(OS(N)(=O)=O)ccc12 [compound 19, 4-(Prop-2-yl)coumarin-7-O-sulfamate] | 86 | 90 |  |  |  |  |  |  | 94 | 
5 | NS(=O)(=O)Oc1ccc2c(CCc3ccccc3)cc(=O)oc2c1 [compound 24, 4-(2-Phenylethyl)coumarin-7-O-sulfamate] | 53 | 93 | 82 | 39 | 84 | 95 | 98 | 8 | 98 | 18
6 | CCCCCc1cc(=O)oc2cc(OS(N)(=O)=O)ccc12 [compound 10, 4-Pentylcoumarin-7-O-sulfamate] | 70 | 97 | 40 | 52 | 88 | 92 | 95 | 22 | 99 | 10
7 | CCCCCCCCc1cc(=O)oc2cc(OS(N)(=O)=O)ccc12 [compound 13, 4-Octylcoumarin-7-O-sulfamate] | 74 | 97 | 68 |  | 90 | 97 | 99 | 28 | 99 | 
8 | NS(=O)(=O)Oc1ccc2c(CC34CC5CC(CC(C5)C3)C4)cc(=O)oc2c1 [compound 27, 4-(1-Adamantanemethyl)coumarin-7-O-sulfamate] | 8 | 96 |  |  |  |  |  |  |  | 
9 | CCCCCCCCCCCCc1cc(=O)oc2cc(OS(N)(=O)=O)ccc12 [compound 17, 4-Dodecylcoumarin-7-O-sulfamate] | 68 | 89 | 45 | 22 | 67 | 95 | 98 | 17 | 96 | 
10 | CCCCCCCCCCc1cc(=O)oc2cc(OS(N)(=O)=O)ccc12 [compound 15, 4-Decylcoumarin-7-O-sulfamate] | 74 | 96 | 60 | 86 | 95 | 98 | 100 | 17 | 99 | 
11 | CC(C)Cc1cc(=O)oc2cc(OS(N)(=O)=O)ccc12 [compound 20, 4-(1′,1′-Dimethylethyl)coumarin-7-O-sulfamate] | 19 | 97 |  |  |  |  |  |  |  | 
12 | NS(=O)(=O)Oc1ccc2c(C3CCCCC3)cc(=O)oc2c1 [compound 26, 4-Cyclohexylcoumarin-7-O-sulfamate] | 69 | 94 | 42 | 37 | 72 | 80 | 93 | 9 | 99 | 24
13 | Cc1c(Cl)c(=O)oc2cc(OS(N)(=O)=O)ccc12 [compound 39, 3-Chloro-4-methylcoumarin-7-O-sulfamate] |  |  |  |  | 29 | 67 | 87 |  |  | 600
14 | CCCCCCCc1c(C)c2ccc(OS(N)(=O)=O)cc2oc1=O [compound 30, 3-Heptyl-4-methylcoumarin-7-O-sulfamate] | 65 | 97 |  |  | 99 | 100 | 100 | 23 | 99 | 
15 | CCc1ccc(-c2cc(=O)oc3cc(OS(N)(=O)=O)ccc23)cc1 [compound 25, 4-(4-Ethylphenyl)coumarin-7-O-sulfamate] |  | 27 | 2600 | 6 | 24 | 73 | 84 |  | 85 | 350
16 | Cc1c(Cc2ccccc2)c(=O)oc2cc(OS(N)(=O)=O)ccc12 [compound 41, 3-Benzyl-4-methylcoumarin-7-O-sulfamate] | 94 | 99 |  | 85 | 91 | 94 | 97 | 53 |  | 
17 | CCCCCCCc1cc(=O)oc2cc(OS(N)(=O)=O)ccc12 [compound 12, 4-Heptylcoumarin-7-O-sulfamate] | 64 | 97 | 90 |  | 93 | 95 | 99 | 8 | 99 | 
18 | CCCCc1cc(=O)oc2cc(OS(N)(=O)=O)ccc12 [compound 9, 4-Butylcoumarin-7-O-sulfamate] | 49 | 91 | 102 |  | 85 | 91 | 93 | 10 | 98 | 
19 | CCCCCCCCCCc1c(C)c2ccc(OS(N)(=O)=O)cc2oc1=O [compound 33, 3-Decyl-4-methylcoumarin-7-O-sulfamate] | 33 | 79 | 250 | 80 | 97 | 99 | 97 | 3 | 94 | < 10
20 | Cc1c(-c2ccccc2)c(=O)oc2cc(OS(N)(=O)=O)ccc12 [compound 40, 4-Methyl-3-phenylcoumarin-7-O-sulfamate] | 65 | 95 | 54 | 32 | 75 |  |  | 8 | 99 | 25
21 | CCCCCCCCCCCCCc1cc(=O)oc2cc(OS(N)(=O)=O)ccc12 [compound 18, 4-Tridecylcoumarin-7-O-sulfamate] | 55 | 80 | 85 | 72 | 96 |  |  | 7 | 91 | 3.2
22 | NS(=O)(=O)Oc1ccc2c(CCl)cc(=O)oc2c1 [compound 21, 4-Chloromethylcoumarin-7-O-sulfamate] | 19 | 59 | 600 | 6 | 33 | 82 | 92 | 10 | 94 | 220
23 | CCCCCCCCCCCCCCc1c(C)c2ccc(OS(N)(=O)=O)cc2oc1=O [compound 37, 4-Methyl 3-tetradecylcoumarin-7-O-sulfamate] |  |  | 10000 |  |  |  |  |  |  | 
24 | CCCCCCCCCCCc1cc(=O)oc2cc(OS(N)(=O)=O)ccc12 [compound 16, 4-Undecylcoumarin-7-O-sulfamate] | 56 | 92 | 73 |  |  |  |  | 8 | 97 | 
25 | Cc1c(CC2CCCCC2)c(=O)oc2cc(OS(N)(=O)=O)ccc12 [compound 44, 3-Cyclohexylmethyl-4-methylcoumarin-7-O-sulfamate] | 74 | 99 |  |  |  |  |  |  |  | 
